In brackets after ≈: the same amount, converted by molar mass.
Tests used:
[1] = Intrinsic dissolution rate from miniaturized discs (DIDR), μDiss Profiler; type: physicochemical; settings: disc (D), 100 rpm, mean ± SD
Procedure: Dissolution experiments were carried out in a small-scale dissolution apparatus using in situ fiber optic probes to measure the amount of drug dissolved over time by UV absorbance (μDiss Profiler, Pion Inc., Billerica, MA, USA). Drug dissolution was carried out from suspensions (S) or discs (D) depending on the solubility of the compound in the biorelevant media studied (Table 3). […] Standard curves were established by adding aliquots of DMSO stock solutions of the compounds to 3 mL of biorelevant medium, respectively. Dissolution media were prepared following the protocol provided by Biorelevant.com Ltd. and used within 48 h after their preparation. The media were incubated at 37 °C for at least one hour prior to use in the dissolution experiments. The hydrodynamic diameter of the micelles/vesicles formed in the biorelevant media were measured by DLS (Table 2). […] Stirring was turned off while measuring the UV absorbance for each aliquot and the standard curve was established based on six aliquots. […] Intrinsic dissolution rates will henceforth be denoted 'IDR' for both SIDR and DIDR values determined in this study (see Table 3 for details).

[2] = physchem; settings: 37 °C, pH 6.5, fassif, thermodynamic from solid
Procedure: In these experiments, an excess amount of drug was added to triplicate Eppendorf tubes containing 1 mL of the respective dissolution medium. The tubes were vortexed and placed in a 37 °C incubator. Samples for HPLC analysis were taken 24, 48, and 72 h (triplicates at each time point) after initiation of the experiment to ensure that equilibrium had been reached. The samples were centrifuged at 37 °C, 23,000 g for 10 min (Heraeus Megafuge 8R, Thermo Scientific, Waltham, MA, USA). The supernatant was sampled, diluted 1:1 with acetonitrile, and kept refrigerated until HPLC analysis. […] The injection volumes were 20 μL.

- IDRFaSSIF-V1 ([1]; FaSSIF-V1 pH 6.5, 37 °C): 3.2 ±0.1 μg/min/cm^2
- IDRFaSSIF-V2 ([1]; FaSSIF-V2 pH 6.5, 37 °C): 6.6 ± 0.8 μg/min/cm^2
- solubility thermodynamic [2]: 18.7 ± 1.3 µg/mL (≈ 63.1 µM)
Structure (SMILES): C#C[C@]1(O)CC[C@H]2[C@@H]3CCc4cc(O)ccc4[C@H]3CC[C@@]21C [Ethinylestradiol]

Reference: paper PMC7356998, “Intrinsic Dissolution Rate Profiling of Poorly Water-Soluble Compounds in Biorelevant Dissolution Media” (Pharmaceutics, 2020)
